Values of other authors as cited in US20250177407A1 (Closed Loop Medicine Ltd., priority 2023, published 2025).
Where two headings read alike, the source gives them in different places. Marks after values point to notes of the source that are not given here.

Columns and labels:
[1] = tested on: patients with nonvalvular AF; conditions: ROCKET-AF
[2] = target: factor Xa activity (Homo sapiens, UniProt P00742)
[3] = tested on: prothrombin time
[4] = not given; remark: listed apart in the source
[5] = not given; remark: listed apart in the source
[6] = not given; remark: listed apart in the source
[7] = not given; remark: listed apart in the source
[8] = tested on: patients with AF; conditions: management of AF
[9] = clearance adjustment, comedication

Sequence of factor Xa activity (P00742 235-488 limits assumed): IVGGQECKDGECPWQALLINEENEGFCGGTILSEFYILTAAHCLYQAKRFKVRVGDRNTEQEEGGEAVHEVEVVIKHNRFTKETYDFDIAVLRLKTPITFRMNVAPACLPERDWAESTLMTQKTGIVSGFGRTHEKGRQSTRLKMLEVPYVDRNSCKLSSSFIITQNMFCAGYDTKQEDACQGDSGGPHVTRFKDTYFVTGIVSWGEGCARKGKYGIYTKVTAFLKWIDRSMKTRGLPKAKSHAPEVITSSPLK
Sequence of factor Xa activity (P00742 41-179 partner limits assumed): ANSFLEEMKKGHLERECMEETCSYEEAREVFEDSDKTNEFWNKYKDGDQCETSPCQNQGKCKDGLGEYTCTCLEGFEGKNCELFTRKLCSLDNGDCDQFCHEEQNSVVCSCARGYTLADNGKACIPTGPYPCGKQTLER

Compound: O=C(NC[C@H]1CN(c2ccc(N3CCOCC3=O)cc2)C(=O)O1)c1ccc(Cl)s1 [rivaroxaban]
- rate of fatal stroke [1]: 1.7 % per year
- risk of intracranial bleeds [1]: 0.5%
- Emax ([2]; Girgis et al. (2014)): 107%
- Emax ([2]; Mueck et al. (2007)): 0.86 U/ml
- Emax ([2]; Mueck et al. (2008b), KRS): 0.837 U/ml
- Emax ([2]; Mueck et al. (2008b), day 1, HRS): 0.881 U/ml
- Emax ([2]; Mueck et al. (2008b), steady state, HRS): 0.942 U/ml
- FXa0 (second entry of the cell) ([2]; Tanigawa et al. (2013)): 0.928 U/mL
- Hill ([2]; Tanigawa et al. (2013)): 1.16
- interethnic differences in PK and PD characteristics (Caucasian, African-American, Hispanic, Japanese, Chinese patients (EMA)): no clinically relevant interethnic differences
- higher exposure compared to other ethnicities (healthy Japanese subjects, on average (FDA)): 20-40%
- increase in AUC compared with healthy subjects (mild (Child-Pugh A) hepatic impairment): 15%
- increase in exposure (mild renal impairment (CrCl 50-79 mL/min)): 44%
- increase in the effect-time curve AUC (moderate hepatic impairment): 159%
- prothrombin time (moderate hepatic impairment): significant prolongation
- increase in exposure (moderate renal impairment (CrCl 30-49 mL/min)): 52%
- increase in exposure (severe renal impairment (CrCl<30 mL/min)): 64%
- slope of prothrombin time versus plasma concentration ([3]; Esmueti et al. (2022), Fisherbrand reagent): 0.018 s/(μg/ L)
- Hill ([3]; Zhao et al. (2022)): 1.37 ^b
- slope of prothrombin time versus plasma concentration ([3]; Zhao et al. (2022)): 0.0018 ^b s/(μg/L)
- plasma protein binding [4]: 92-95%
- increase in drug level exposure (AUC) ([5]; CrCl = 30, relative to median CrCl of 69 for the RE-LY study data): 1.8 fold
- increase in drug level exposure (AUC) ([5]; CrCl = 50, relative to median CrCl of 69 for the RE-LY study data): 1.3 fold
- increase in drug level exposure (AUC) ([5]; South Asians compared to other ethnicities): ~26% increase in South Asians compared to
- increase in drug level exposure (AUC) per year older ([5]; age, compared to 72 yr): 0.41% increase per year older compared to 72 yr
- decrease in drug level exposure (AUC) ([5]; comedication PPIs): ~13% decrease
- increase in drug level exposure (AUC) ([5]; comedication amiodarone): 12% increase
- increase in drug level exposure (AUC) ([5]; comedication verapamil): 23% increase
- increase in drug level exposure (AUC) ([5]; females compared to men): ~9% increase in females compared to men
- decrease in Vd ([5]; haemoglobin above 14.3 g · dL^−1): by 4%/1 g · dL^−1 above 14.3 g · dL^−1
- effect of low weight on Cmax ([5]; in vivo): increase Cmax
- increase in drug level exposure (AUC) ([5]; patients with heart failure): ~7% increase in patients with HF
- increase in distribution volume (Vd) per kg above 80 kg ([5]; weight): in distribution volume (Vd) by 0.8%
- θCL/F, P-gp inhibitor ([6]; clearance adjustment, P-gp inhibitor comedication): 0.996 Proportion
- θCL/F, VTE ≤72 hr ([6]; clearance adjustment, VTE prevention after hip or knee surgery, less than 72 hours): 1.04 Proportion
- θCL/F, VTE >72 hr ([6]; clearance adjustment, VTE prevention after hip or knee surgery, more than 72 hours): 1.29 Proportion
- θCL/F, ACS ([6]; clearance adjustment, acute coronary syndrome): 1.14 Proportion
- θCL/F, CYP3A4 inducer [6, 9]: 1.3 Proportion
- θCL/F, Medium CYP3A4 inhibitor [6, 9]: 0.863 Proportion
- θCL/F, Strong CYP3A4 inhibitor [6, 9]: 0.978 Proportion
- θCL/F, Weak CYP3A4 inhibitor [6, 9]: 0.939 Proportion
- θCL/F, AF ([6]; clearance adjustment, stroke prevention in AF): 0.849 Proportion
- θV/F, Age ([6]; covariate effect of age on V/F): −0.189 Power
- θCL/F, Weight ([6]; covariate effect of body weight on CL/F): −0.278 Power
- θV/F, Weight ([6]; covariate effect of body weight on V/F): 0.216 Power
- θCL/F, CRCL ([6]; covariate effect of creatinine clearance on CL/F): 0.406 Power
- θV/F, Sex ([6]; covariate effect of sex on V/F): 0.889 Proportion
- ω^2CL/F ([6]; inter-individual variability): 0.167 Variance
- ω^2CL/F, V/F ([6]; inter-individual variability): 0.0674 Covariance
- ω^2Ka ([6]; inter-individual variability): 0.628 Variance
- ω^2V/F ([6]; inter-individual variability): 0.0391 Variance
- CL/F, apparent clearance ([6]; population PK estimate): 6.58 L/h
- Ka, first-order absorption rate constant ([6]; population PK estimate): 0.821 h⁻¹
- V/F, apparent volume of distribution ([6]; population PK estimate): 62.5 L
- D50 ([6]; relative bioavailability model): 14.4 mg
- σ^2prop ([6]; residual variability): 0.203 Variance
- bioavailability ([7]; 20 mg tablets, fasting, healthy subjects): approximately 66%
- variability in drug plasma levels for a given dose ([7]; between patients): 6- to 10 fold
- half-life ([7]; elderly): 11 to 13 h
- half life ([7]; elderly patients): ~12 h
- half-life ([7]; healthy volunteers): 5 to 9 h
- fraction of absorbed drug eliminated unchanged via the kidney ([7]; human, in vivo): 30%
- fraction of absorbed drug metabolised by hepatic CYP 3A4/5 and CYP-independent enzymes ([7]; human, in vivo): Approximately 60%
- time to peak levels ([7]; once daily immediate release with food): 1 to 2 h
- bioavailability ([7]; oral 2.5 and 10 mg tablets, not affected by food): 80-100%
- time to peak concentration ([7]; oral administration): 2 to 4 h
- half-life ([7]; population not specified): 5 to 9 h
- half life ([7]; young patients): 5 to 9 h

Compound: CC(=O)CC(c1ccccc1)c1c(O)c2ccccc2oc1=O (stereo not shown) [warfarin]
- rate of fatal stroke [1]: 2.2 % per year
- reduction of stroke [8]: about 60%
